Measured values taken from PubChem BioAssay AID743430 (The Scripps Research Institute Molecular Screening Center, 2014).
Calls of active or inactive are those of the source. The rule behind the calls is not given here.

Biological target: Sphingosine 1-phosphate receptor 4 (Homo sapiens) (UniProt O95977)
Assay: agonism at human S1PR4 – cell-based, FRET, dose response, counter-screen for S1PR3 antagonist project, late-stage follow-up (AID 743430)
Settings: S1P4-expressing cells, FRET reporter, agonist mode

Sequence of Sphingosine 1-phosphate receptor 4 (Homo sapiens) (O95977 whole entry, looked up): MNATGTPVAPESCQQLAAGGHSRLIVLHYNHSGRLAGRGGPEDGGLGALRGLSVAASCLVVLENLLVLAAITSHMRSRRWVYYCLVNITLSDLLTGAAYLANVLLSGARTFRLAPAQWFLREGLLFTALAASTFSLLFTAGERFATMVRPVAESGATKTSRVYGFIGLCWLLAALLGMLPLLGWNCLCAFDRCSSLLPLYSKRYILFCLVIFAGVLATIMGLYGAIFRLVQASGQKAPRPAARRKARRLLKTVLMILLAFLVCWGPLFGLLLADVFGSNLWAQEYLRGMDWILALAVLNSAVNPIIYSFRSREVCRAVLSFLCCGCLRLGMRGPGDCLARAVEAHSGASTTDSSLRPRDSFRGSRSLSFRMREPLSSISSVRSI

Structure (SMILES) | EC50
O=C(c1cccc(Cl)c1)N(CCO)C(c1ccc(Cl)c(Cl)c1)c1nc(-c2ccccc2)no1 (configuration not stated) | > 50 µM (inactive)
O=C(NC(c1ccc(Cl)c(Cl)c1)c1nc(-c2ccccc2)no1)c1ccccc1 (configuration not stated) | > 50 µM (inactive)
O=C(NC(c1cccc(Cl)c1)c1nc(-c2ccccc2)no1)c1cc(Cl)cc(Cl)c1 (configuration not stated) | > 50 µM (inactive)
Cc1ccc(C(=O)NC(c2ccccc2)c2nc(-c3ccccc3)no2)cc1 (configuration not stated) | > 50 µM (inactive)
O=C(NC(c1ccc(Cl)cc1)c1nc(-c2ccccn2)no1)c1cccc(Cl)c1 (configuration not stated) | > 50 µM (inactive)
O=C(NC(c1nc(-c2ccccc2)no1)C1CCOCC1)c1ccc(Cl)c(Cl)c1 (configuration not stated) | > 50 µM (inactive)
O=C(NC(c1ccccc1)c1nc(-c2ccccc2)no1)c1cccc(Cl)n1 (configuration not stated) | > 50 µM (inactive)
O=C(NC(c1ccc(Cl)cc1)c1nc(-c2cccc(Cl)c2)no1)c1cccc(Cl)c1 (configuration not stated) | > 50 µM (inactive)
O=C(NC(Cc1ccccc1)c1nc(-c2ccccc2)no1)c1cccc(Cl)c1 (configuration not stated) | > 50 µM (inactive)
O=C(NC(c1cccc(Cl)c1)c1nc(-c2ccccc2)no1)c1ccc(Cl)c(Cl)c1 (configuration not stated) | > 50 µM (inactive)
COc1ccc(C(=O)NC(c2ccccc2)c2nc(-c3ccccc3)no2)cc1 (configuration not stated) | > 50 µM (inactive)
O=C(NC(c1ccc(Cl)c(Cl)c1)c1nc(-c2ccccc2)no1)c1ccc(Cl)c(Cl)c1 (configuration not stated) | > 50 µM (inactive)
O=C(NC(c1nc(-c2ccccc2)no1)C1CCCCC1)c1ccc(Cl)c(Cl)c1 (configuration not stated) | > 50 µM (inactive)
N#Cc1ccc(C(=O)NC(c2ccc(Cl)c(Cl)c2)c2nc(-c3ccccc3)no2)cc1 (configuration not stated) | > 50 µM (inactive)
O=C(NC(c1cccc(Cl)c1)c1nc(-c2ccccc2)no1)c1cccc(Cl)c1 (configuration not stated) | > 50 µM (inactive)

Second part, the molecule after the results:

EC50 | Structure (SMILES)
> 50 µM (inactive) | O=C(NC(c1ccc(Cl)cc1)c1nc(-c2ccccc2)no1)c1ccc(Cl)c(Br)c1 (configuration not stated)
> 50 µM (inactive) | O=C(NC(c1ccc(Cl)cc1)c1nc(-c2ccccc2)no1)c1ccc(Cl)c(Cl)c1 (configuration not stated)
> 50 µM (inactive) | O=C(NC(c1ccccc1)c1nc(-c2ccccc2)no1)c1cccc(Cl)c1 (configuration not stated)
> 50 µM (inactive) | CCc1ccc(C(NC(=O)c2cccc(Cl)c2)c2nc(-c3ccccc3)no2)cc1 (configuration not stated)
> 50 µM (inactive) | O=C(NC(c1ccccc1)c1nc(-c2ccccc2)no1)c1ccc(Cl)cc1 (configuration not stated)
> 50 µM (inactive) | O=C(NC(c1ccc(Cl)cc1)c1nc(-c2ccccc2)no1)c1cccc(Cl)c1 (configuration not stated)
> 50 µM (inactive) | O=C(NC(c1ccc(Cl)c(Cl)c1)c1nc(-c2ccccc2)no1)c1cccc(Cl)c1 (configuration not stated)
> 50 µM (inactive) | Cc1ccc(C(NC(=O)c2cccc(Cl)c2)c2nc(-c3ccccc3)no2)cc1 (configuration not stated)
> 50 µM (inactive) | O=C(NC(c1ccc(Cl)c(Cl)c1)c1nc(-c2ccccc2)no1)c1ccc(Cl)cc1 (configuration not stated)
> 50 µM (inactive) | O=C(NC(c1ccc(Cl)cc1)c1nc(-c2ccccc2)no1)c1cccc(Br)c1 (configuration not stated)
inactive | O=C(NC(c1ccccc1)c1nc(-c2ccccc2)no1)c1cccc(Br)c1 (configuration not stated)
> 50 µM (inactive) | O=C(NC(c1ccc(Br)cc1)c1nc(-c2ccccc2)no1)c1ccc(Cl)c(Cl)c1 (configuration not stated)
